We go through 24 molecules from ChEMBL document CHEMBL1139816, “Melanocortin subtype 4 receptor agonists: structure-activity relationships about the 4-alkyl piperidine core” (Bioorg Med Chem Lett, 2007).

The EC50 is the concentration at which the effect is half-maximal. In general, IC50 refers to the concentration that gives 50% inhibition.

Test [1] addresses T1, Melanocortin receptor 4 (Homo sapiens, UniProt P32245). Nature of the test: […] at human MC4R assessed as stimulation of cAMP production. The format is functional. Also on record: concentration or dose not given beside the values.
Test [2] deals with T1, Melanocortin receptor 4. Nature of the test: Binding affinity to human MC4R.
For the next test, the target named is Melanocortin receptor 5 (Homo sapiens, UniProt P33032). Nature of the test: […] at human MC5R assessed as stimulation of cAMP production. It is filed as functional. Also on record: concentration or dose not given beside the values. (Changes in cAMP serve as a functional read-out for many G protein-coupled receptors.)
Chain of Melanocortin receptor 5 (P33032 whole entry): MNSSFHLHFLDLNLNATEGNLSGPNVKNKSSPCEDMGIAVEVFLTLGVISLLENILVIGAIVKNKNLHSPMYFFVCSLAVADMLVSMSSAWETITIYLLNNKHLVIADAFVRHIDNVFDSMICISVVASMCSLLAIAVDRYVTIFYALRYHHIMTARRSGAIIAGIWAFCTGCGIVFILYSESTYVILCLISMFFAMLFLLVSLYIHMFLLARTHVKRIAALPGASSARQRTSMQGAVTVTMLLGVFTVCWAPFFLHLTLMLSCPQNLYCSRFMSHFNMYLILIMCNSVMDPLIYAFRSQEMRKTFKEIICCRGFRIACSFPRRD
In a further test the target is Melanocortin receptor 3 (Homo sapiens, UniProt P41968). Kind of test: […] at human MC3R assessed as stimulation of cAMP production. The format is functional. Further details: concentration or dose not given beside the values.
Chain of Melanocortin receptor 3 (P41968 whole entry): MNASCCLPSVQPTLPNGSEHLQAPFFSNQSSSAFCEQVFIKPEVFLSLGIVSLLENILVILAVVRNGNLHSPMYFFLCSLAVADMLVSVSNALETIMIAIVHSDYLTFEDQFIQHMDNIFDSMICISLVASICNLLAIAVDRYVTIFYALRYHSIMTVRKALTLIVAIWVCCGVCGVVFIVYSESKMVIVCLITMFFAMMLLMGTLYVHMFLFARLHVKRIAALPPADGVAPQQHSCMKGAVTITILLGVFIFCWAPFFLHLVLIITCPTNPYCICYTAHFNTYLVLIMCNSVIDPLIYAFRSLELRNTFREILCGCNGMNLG
For test [3], the species on record is Homo sapiens. Nature of the test: Ratio of EC50 for human MC5R to EC50 for human MC4R.
The species named for test [4] is Homo sapiens. Kind of test: Ratio of EC50 for human MC3R to EC50 for human MC4R.

T1 sequence (P32245 whole entry): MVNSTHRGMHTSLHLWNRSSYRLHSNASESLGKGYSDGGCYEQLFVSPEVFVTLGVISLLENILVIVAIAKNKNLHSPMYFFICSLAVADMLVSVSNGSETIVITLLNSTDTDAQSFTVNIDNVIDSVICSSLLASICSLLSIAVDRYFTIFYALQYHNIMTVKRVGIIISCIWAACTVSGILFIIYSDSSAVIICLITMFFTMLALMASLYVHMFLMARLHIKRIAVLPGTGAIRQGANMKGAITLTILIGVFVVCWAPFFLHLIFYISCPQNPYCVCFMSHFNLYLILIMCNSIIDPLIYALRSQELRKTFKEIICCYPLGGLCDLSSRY

With `CN1CCN[C@@H](C(=O)N[C@@H](Cc2ccc(F)cc2)C(=O)N2CCC(C(=O)NC(C)(C)C)(C3CCC(C)(C)CC3)CC2)C1`, the Activity turned out to be 87% on Melanocortin receptor 4 [1], 19% at Melanocortin receptor 5 and 42% at Melanocortin receptor 3. Further, the values for the EC50 at Melanocortin receptor 4 [1], on Melanocortin receptor 5 and at Melanocortin receptor 3 were 546 nM, 1120 nM and 241 nM, respectively. The molecule also yielded an IC50 at Melanocortin receptor 4 [2] of 162 nM.

On to `CC(C)C1(CC#N)CCN(C(=O)[C@H](Cc2ccc(Cl)cc2)NC(=O)[C@H]2Cc3ccccc3CN2)CC1`, for which, on Melanocortin receptor 4 [1], the Activity is 32% and the EC50 worked out at 827 nM. This molecule yielded an IC50 on Melanocortin receptor 4 [2] of 63 nM. Further, on Melanocortin receptor 5, the Activity came out at 20% and the EC50 was 1100 nM.

Take `Cn1nnnc1CC1(Cc2ccccc2)CCN(C(=O)[C@H](Cc2ccc(Cl)cc2)NC(=O)[C@H]2Cc3ccccc3CN2)CC1`: the Activity turned out to be 70% on Melanocortin receptor 4 [1], 20% on Melanocortin receptor 5 and 17% at Melanocortin receptor 3. Also, the EC50 at Melanocortin receptor 4 [1] was 111 nM; at Melanocortin receptor 5, 1760 nM; at Melanocortin receptor 3 it was 840 nM. For the same molecule, on Melanocortin receptor 4 [2], the 50% inhibitory concentration (IC50) was found to be 52.3 nM.

In the case of `CN1CCN[C@@H](C(=O)N[C@@H](Cc2ccc(F)cc2)C(=O)N2CCC(C(=O)NC(C)(C)C)(C3CCCCC3)CC2)C1`, on Melanocortin receptor 4 [1], the Activity came out at 98% and the EC50 was 6.5 nM. For the same molecule, the IC50 at Melanocortin receptor 4 [2] was 13.6 nM. Moreover, at Melanocortin receptor 5, the Activity was found to be 31% and the EC50 is 977 nM.

As to `Cn1nnnc1CC1(c2ccc(Cl)cc2)CCN(C(=O)[C@H](Cc2ccc(Cl)cc2)NC(=O)[C@H]2Cc3ccccc3CN2)CC1`, the values for the Activity at Melanocortin receptor 4 [1], on Melanocortin receptor 5 and on Melanocortin receptor 3 were 100%, 17% and 92%, respectively. Moreover, the values for the EC50 on Melanocortin receptor 4 [1], at Melanocortin receptor 5 and on Melanocortin receptor 3 were 4.9 nM, 527 nM and 434 nM, respectively. At Melanocortin receptor 4 [2], this molecule returned a half-inhibitory concentration (IC50) of 113 nM.

In the case of `CC1CCC(C2(C(=O)NC(C)(C)C)CCN(C(=O)[C@H](Cc3ccc(F)cc3)NC(=O)[C@H]3CN(C)CCN3)CC2)CC1` (some centres undefined), the Activity at Melanocortin receptor 4 [1] came out at 81%; on Melanocortin receptor 5, 27%; on Melanocortin receptor 3 it was 37%. Moreover, the figures for the EC50 on Melanocortin receptor 4 [1], on Melanocortin receptor 5 and on Melanocortin receptor 3 were 10 nM, 888 nM and 230 nM, respectively. Also, at Melanocortin receptor 4 [2], the IC50 turned out to be 6.8 nM.

`Cn1nnnc1CC1(C2CCCCC2)CCN(C(=O)[C@H](Cc2ccc(Cl)cc2)NC(=O)[C@H]2Cc3ccccc3CN2)CC1`: the values for the Activity at Melanocortin receptor 4 [1], at Melanocortin receptor 5 and on Melanocortin receptor 3 were 96%, 57% and 50%, respectively. The EC50 turned out to be 3.2 nM at Melanocortin receptor 4 [1], 222 nM at Melanocortin receptor 5 and 115 nM on Melanocortin receptor 3. Moreover, the 50% inhibitory concentration (IC50) on Melanocortin receptor 4 [2] was determined as 0.85 nM. Further, the results for the Selectivity ratio in the test filed under Homo sapiens [3] and in the test filed under Homo sapiens [4] were 69 and 36, respectively.

Consider `Cn1nnnc1CC1(C2CCOCC2)CCN(C(=O)[C@H](Cc2ccc(Cl)cc2)NC(=O)[C@H]2Cc3ccccc3CN2)CC1`, for which the Activity is 90% at Melanocortin receptor 4 [1], 18% on Melanocortin receptor 5 and 18% at Melanocortin receptor 3. Also, the EC50 at Melanocortin receptor 4 [1] is 157 nM; at Melanocortin receptor 5, 2950 nM; on Melanocortin receptor 3, 2950 nM. The molecule further had an IC50 at Melanocortin receptor 4 [2] of 32 nM.

On to `N#CCC1(C2CC2)CCN(C(=O)[C@H](Cc2ccc(Cl)cc2)NC(=O)[C@H]2Cc3ccccc3CN2)CC1`, for which the IC50 on Melanocortin receptor 4 [2] turned out to be 173 nM.

For `Cn1nnnc1CC1(CC(C)(C)C)CCN(C(=O)[C@H](Cc2ccc(Cl)cc2)NC(=O)[C@H]2Cc3ccccc3CN2)CC1`, on Melanocortin receptor 4 [1], the Activity came out at 76% and the EC50 is 21 nM. At Melanocortin receptor 4 [2], this molecule yielded an IC50 of 3.6 nM. In addition, on Melanocortin receptor 5, the Activity was found to be 27% and the EC50 was determined as 380 nM.

Consider `CCCCCCC1(Cc2nnnn2C)CCN(C(=O)[C@H](Cc2ccc(Cl)cc2)NC(=O)[C@H]2Cc3ccccc3CN2)CC1`, for which the Activity at Melanocortin receptor 4 [1] was 84%; on Melanocortin receptor 5 it was 15%; at Melanocortin receptor 3, 34%. The EC50 at Melanocortin receptor 4 [1] turned out to be 28.7 nM; at Melanocortin receptor 5, 684 nM; at Melanocortin receptor 3, 1000 nM. Moreover, the IC50 on Melanocortin receptor 4 [2] worked out at 4 nM.

In the case of `CN1CCN[C@@H](C(=O)N[C@@H](Cc2ccc(F)cc2)C(=O)N2CCC(C(=O)NC(C)(C)C)(C3(C)CCCCC3)CC2)C1`, on Melanocortin receptor 4 [1], the Activity was 79% and the 50% effective concentration (EC50) was found to be 57.8 nM. The molecule further displayed an IC50 on Melanocortin receptor 4 [2] of 36.6 nM. At Melanocortin receptor 5, the Activity was determined as 56% and the EC50 is 1980 nM.

Consider `CC1(CC#N)CCN(C(=O)[C@H](Cc2ccc(Cl)cc2)NC(=O)[C@H]2Cc3ccccc3CN2)CC1`, for which the IC50 at Melanocortin receptor 4 [2] was found to be 1490 nM.

Turning to `CN1CCN[C@@H](C(=O)N[C@@H](Cc2ccc(F)cc2)C(=O)N2CCC(CC3CC3)(C(=O)NC(C)(C)C)CC2)C1`, at Melanocortin receptor 4 [1], the Activity is 54% and the concentration for a half-maximal effect (EC50) was found to be 2170 nM. Also, the IC50 on Melanocortin receptor 4 [2] is 840 nM.

For `CN1CCN[C@@H](C(=O)N[C@@H](Cc2ccc(F)cc2)C(=O)N2CCC(C(=O)NC(C)(C)C)(C3C=CC(=O)CC3)CC2)C1` (some centres undefined), at Melanocortin receptor 4 [1], the Activity was determined as 59% and the EC50 was 1770 nM. The same molecule registered an IC50 at Melanocortin receptor 4 [2] of 343 nM.

As to `N#CCC1(C2CCCC2)CCN(C(=O)[C@H](Cc2ccc(Cl)cc2)NC(=O)[C@H]2Cc3ccccc3CN2)CC1`, on Melanocortin receptor 4 [1], the Activity stood at 52% and the EC50 turned out to be 196 nM. This molecule returned a half-inhibitory concentration (IC50) at Melanocortin receptor 4 [2] of 16.4 nM. Besides, on Melanocortin receptor 5, the Activity came to 40% and the concentration for a half-maximal effect (EC50) came to 630 nM.

Regarding `N#CCC1(C2CCCCC2)CCN(C(=O)[C@H](Cc2ccc(Cl)cc2)NC(=O)[C@H]2Cc3ccccc3CN2)CC1`, at Melanocortin receptor 4 [1], the Activity is 51% and the EC50 came out at 189 nM. This molecule gave an IC50 at Melanocortin receptor 4 [2] of 6.8 nM. In addition, at Melanocortin receptor 5, the Activity is 42% and the EC50 was 640 nM. Further, the Selectivity ratio in the test listed under Homo sapiens [3] was 3.

On to `CC(C)CC1(Cc2nnnn2C)CCN(C(=O)[C@H](Cc2ccc(Cl)cc2)NC(=O)[C@H]2Cc3ccccc3CN2)CC1`, for which the Activity at Melanocortin receptor 4 [1] amounted to 98%; at Melanocortin receptor 5 it was 46%; on Melanocortin receptor 3, 31%. Also, the EC50 on Melanocortin receptor 4 [1] came to 12.5 nM; at Melanocortin receptor 5 it was 662 nM; on Melanocortin receptor 3 it was 680 nM. Also, the IC50 on Melanocortin receptor 4 [2] came out at 6 nM.

On Melanocortin receptor 4 [2], `CCC1(CC#N)CCN(C(=O)[C@H](Cc2ccc(Cl)cc2)NC(=O)[C@H]2Cc3ccccc3CN2)CC1` gave an IC50 of 759 nM.

For `CCC(C)(C)C1(C(=O)NC(C)(C)C)CCN(C(=O)[C@H](Cc2ccc(F)cc2)NC(=O)[C@H]2CN(C)CCN2)CC1`, at Melanocortin receptor 4 [1], the Activity came out at 55% and the EC50 stood at 151 nM. For the same molecule, at Melanocortin receptor 4 [2], the IC50 is 66.2 nM.

Regarding `CCCCC1(CC#N)CCN(C(=O)[C@H](Cc2ccc(Cl)cc2)NC(=O)[C@H]2Cc3ccccc3CN2)CC1`, the Activity amounted to 40% at Melanocortin receptor 4 [1] and 21% at Melanocortin receptor 5. For the same molecule, the values for the EC50 at Melanocortin receptor 4 [1] and on Melanocortin receptor 5 were 281 nM and 480 nM, respectively. On Melanocortin receptor 4 [2], this molecule gave an IC50 of 22.2 nM.

As to `CCC(C)C1(Cc2nnnn2C)CCN(C(=O)[C@H](Cc2ccc(Cl)cc2)NC(=O)[C@H]2Cc3ccccc3CN2)CC1` (some centres undefined), the Activity came to 107% on Melanocortin receptor 4 [1], 39% at Melanocortin receptor 5 and 33% at Melanocortin receptor 3. The values for the EC50 on Melanocortin receptor 4 [1], at Melanocortin receptor 5 and on Melanocortin receptor 3 were 3.9 nM, 250 nM and 263 nM, respectively. On Melanocortin receptor 4 [2], this molecule had an IC50 of 3.7 nM.

In the case of `CN1CCN[C@@H](C(=O)N[C@@H](Cc2ccc(F)cc2)C(=O)N2CCC(C(=O)NC(C)(C)C)(C3C=CCCC3)CC2)C1` (some centres undefined), on Melanocortin receptor 4 [1], the Activity was determined as 76% and the EC50 stood at 84.6 nM. At Melanocortin receptor 4 [2], this molecule came in with an IC50 of 64 nM.

As for `CN1CCN[C@@H](C(=O)N[C@@H](Cc2ccc(F)cc2)C(=O)N2CCC(CC3CCC3)(C(=O)NC(C)(C)C)CC2)C1`, on Melanocortin receptor 4 [1], the Activity is 55% and the EC50 was 563 nM. This molecule had an IC50 at Melanocortin receptor 4 [2] of 177 nM.
